{
  "source": "patent US12544382B2",
  "about": "“2, 4, 6-tri-substituted pyrimidine compound as ATR kinase inhibitor” (BEIJING TIDE PHARMACEUTICAL CO., LTD., priority 2019, dated 2026)",
  "data": [
    {"target": "ATR kinase (Homo sapiens (Human), UniProt Q13535)", "sequence (Q13535 whole entry)": "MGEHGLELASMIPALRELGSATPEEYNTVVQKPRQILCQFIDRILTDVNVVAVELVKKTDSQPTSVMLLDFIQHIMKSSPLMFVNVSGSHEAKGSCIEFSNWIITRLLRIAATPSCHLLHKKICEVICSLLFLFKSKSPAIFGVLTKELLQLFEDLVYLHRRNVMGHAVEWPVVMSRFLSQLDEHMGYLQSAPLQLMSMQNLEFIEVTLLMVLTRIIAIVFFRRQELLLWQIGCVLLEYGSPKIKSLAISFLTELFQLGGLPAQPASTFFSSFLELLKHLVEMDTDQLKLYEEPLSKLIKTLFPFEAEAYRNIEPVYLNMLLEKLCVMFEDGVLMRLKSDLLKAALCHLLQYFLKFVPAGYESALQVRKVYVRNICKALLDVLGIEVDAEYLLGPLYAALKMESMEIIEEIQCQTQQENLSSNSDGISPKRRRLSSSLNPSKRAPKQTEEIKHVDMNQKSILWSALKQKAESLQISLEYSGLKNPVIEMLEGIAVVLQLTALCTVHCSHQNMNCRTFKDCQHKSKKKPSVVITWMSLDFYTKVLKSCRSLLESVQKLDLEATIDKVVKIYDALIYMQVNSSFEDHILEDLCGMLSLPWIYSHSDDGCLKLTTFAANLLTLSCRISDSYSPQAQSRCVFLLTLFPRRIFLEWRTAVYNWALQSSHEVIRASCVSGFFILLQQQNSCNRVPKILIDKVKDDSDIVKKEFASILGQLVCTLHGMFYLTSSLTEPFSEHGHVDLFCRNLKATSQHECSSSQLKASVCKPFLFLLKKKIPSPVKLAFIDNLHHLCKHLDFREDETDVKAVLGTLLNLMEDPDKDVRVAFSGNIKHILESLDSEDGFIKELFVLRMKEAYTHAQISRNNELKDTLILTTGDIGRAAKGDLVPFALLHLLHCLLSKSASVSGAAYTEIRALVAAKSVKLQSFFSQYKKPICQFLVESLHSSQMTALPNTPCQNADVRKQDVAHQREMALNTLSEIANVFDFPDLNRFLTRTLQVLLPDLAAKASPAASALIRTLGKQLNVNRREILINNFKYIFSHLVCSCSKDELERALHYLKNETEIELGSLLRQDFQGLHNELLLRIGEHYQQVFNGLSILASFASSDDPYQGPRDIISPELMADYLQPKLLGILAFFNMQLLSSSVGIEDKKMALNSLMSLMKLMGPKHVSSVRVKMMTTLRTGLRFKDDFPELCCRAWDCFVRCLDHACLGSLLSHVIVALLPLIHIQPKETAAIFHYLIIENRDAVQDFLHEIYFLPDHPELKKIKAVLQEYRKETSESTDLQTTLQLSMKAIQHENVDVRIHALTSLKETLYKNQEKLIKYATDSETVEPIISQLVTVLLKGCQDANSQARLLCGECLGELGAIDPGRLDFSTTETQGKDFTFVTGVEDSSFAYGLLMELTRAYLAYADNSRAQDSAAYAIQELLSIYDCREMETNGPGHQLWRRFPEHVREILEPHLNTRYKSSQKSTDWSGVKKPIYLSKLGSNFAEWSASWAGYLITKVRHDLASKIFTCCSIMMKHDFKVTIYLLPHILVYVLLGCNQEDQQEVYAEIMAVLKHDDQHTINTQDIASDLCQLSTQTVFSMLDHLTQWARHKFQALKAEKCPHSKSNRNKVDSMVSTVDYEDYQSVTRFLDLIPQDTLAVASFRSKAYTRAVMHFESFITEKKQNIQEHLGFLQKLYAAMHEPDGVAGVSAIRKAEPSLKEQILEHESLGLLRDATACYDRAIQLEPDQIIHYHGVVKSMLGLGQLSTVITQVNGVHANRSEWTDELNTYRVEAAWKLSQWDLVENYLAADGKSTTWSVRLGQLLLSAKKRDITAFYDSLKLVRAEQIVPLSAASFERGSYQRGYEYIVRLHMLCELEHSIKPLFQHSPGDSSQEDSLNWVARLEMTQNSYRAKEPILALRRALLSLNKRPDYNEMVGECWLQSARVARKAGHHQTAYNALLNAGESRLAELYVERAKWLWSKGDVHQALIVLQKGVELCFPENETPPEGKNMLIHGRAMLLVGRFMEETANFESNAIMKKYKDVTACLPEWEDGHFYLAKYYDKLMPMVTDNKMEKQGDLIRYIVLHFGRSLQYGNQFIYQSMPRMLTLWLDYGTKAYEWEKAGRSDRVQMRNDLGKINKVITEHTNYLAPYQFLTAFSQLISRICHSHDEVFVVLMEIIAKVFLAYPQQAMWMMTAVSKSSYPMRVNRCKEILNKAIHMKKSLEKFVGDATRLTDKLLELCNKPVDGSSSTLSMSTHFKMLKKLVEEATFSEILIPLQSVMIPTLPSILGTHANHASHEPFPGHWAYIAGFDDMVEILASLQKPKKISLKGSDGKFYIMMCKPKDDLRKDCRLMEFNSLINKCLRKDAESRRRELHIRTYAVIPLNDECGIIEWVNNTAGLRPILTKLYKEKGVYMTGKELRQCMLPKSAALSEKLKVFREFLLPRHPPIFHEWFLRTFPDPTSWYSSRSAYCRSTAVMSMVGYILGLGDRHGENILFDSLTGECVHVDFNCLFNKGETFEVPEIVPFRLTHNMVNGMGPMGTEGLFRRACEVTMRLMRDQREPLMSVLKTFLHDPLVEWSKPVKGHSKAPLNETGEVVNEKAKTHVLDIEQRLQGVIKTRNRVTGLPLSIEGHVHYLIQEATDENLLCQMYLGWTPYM", "sequence (Q8WXE1 whole entry partner)": "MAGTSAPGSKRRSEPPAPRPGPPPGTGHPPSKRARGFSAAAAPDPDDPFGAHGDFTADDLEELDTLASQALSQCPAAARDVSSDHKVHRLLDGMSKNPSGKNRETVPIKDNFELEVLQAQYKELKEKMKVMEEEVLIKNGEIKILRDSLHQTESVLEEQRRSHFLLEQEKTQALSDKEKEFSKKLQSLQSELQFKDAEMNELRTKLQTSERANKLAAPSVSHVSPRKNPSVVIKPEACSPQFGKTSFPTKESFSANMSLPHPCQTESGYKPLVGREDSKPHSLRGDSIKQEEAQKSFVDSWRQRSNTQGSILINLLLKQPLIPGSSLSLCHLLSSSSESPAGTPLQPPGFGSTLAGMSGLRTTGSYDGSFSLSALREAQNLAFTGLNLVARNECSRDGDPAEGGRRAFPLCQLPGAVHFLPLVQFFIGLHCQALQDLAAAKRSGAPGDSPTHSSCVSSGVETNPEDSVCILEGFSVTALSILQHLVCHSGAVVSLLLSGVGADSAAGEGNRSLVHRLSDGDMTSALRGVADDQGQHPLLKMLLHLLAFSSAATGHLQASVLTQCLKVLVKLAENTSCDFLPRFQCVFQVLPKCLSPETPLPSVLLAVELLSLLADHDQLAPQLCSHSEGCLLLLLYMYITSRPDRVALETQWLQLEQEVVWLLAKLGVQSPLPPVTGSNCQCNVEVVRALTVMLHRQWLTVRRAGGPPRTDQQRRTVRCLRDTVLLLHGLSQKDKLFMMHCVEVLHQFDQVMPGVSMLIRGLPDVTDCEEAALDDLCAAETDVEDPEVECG", "assay": "ATR kinase activity assay (time-resolved fluorescence, p53 substrate phosphorylation)", "assay_type": "biochemical", "conditions": "not given", "protocol": "Biotinylated protein derived from p53 (Eurofins, art. No.: 14-952) was phosphorylated with ATR kinase. The amount of phosphorylated protein was determined by time-resolved fluorescence in this assay. The amount of phosphorylated protein was detected by anti-p53-phospho-(serine 15)-K-specific antibody (Cisbio, art. No.: 61GSTDLA) and d2 labeled anti-GST antibody (Cisbio, art. No. 61P08KAE). Before the experiment, the following working solution was prepared as required: 1× reaction buffer (20 mM HEPES PH8.0, 1% glycerol, 0.01% Brij-35), dilution buffer (20 mM HEPES PH8.0, 1% glycerol, 0.01% Brij-35, 5 mM DTT and 1% BSA), stop solution (20 mM HEPES PH8.0, 1% glycerol, 0.01% Brij-35, 250 mM EDTA), detection buffer (50 mM HEPES pH7.0, 150 mM NaCl, 267 mM KF, 0.1% sodium cholate, 0.01% Tween-20, 0.0125% sodium azide). The reagents used above are purchased from Sigma or Invitrogen, except for those where the manufacturer was mentioned.\nOperations are as follows:\n4× gradient dilution of compound solutions was prepared with 1× reaction buffer to obtain 9 compound solutions of different concentrations, and 2.5 μL 4× gradient dilution of compound solutions was added to a 384-well analysis plate (784075, Greiner). 4× p53 substrate working solution (40 nM) was prepared with 1× reaction buffer, and 2.5 μL 4× p53 substrate working solution was added to the 384-well analysis plate. 4×ATR/ATRIP working solution (12.8 ng/μL) was prepared with dilution buffer, and 2.5 μL 4×pATR/ATRIP working solution was added to the 384-well analysis plate. 4×ATP working solution (2 mM) was prepared with deionized water, 2.5 μL 4×ATP working solution was added to the 384-well analysis plate, and incubated at room temperature in dark for 30 minutes. 5 μL stop solution was added to the 384 analysis plate. Finally, 5 μL test mixture (0.084 ng/μL Anti-phospho-p53(ser15)-K and 5 ng/μL Anti-GST-d2) was added to the 384 well analysis plate, incubated overnight at room temperature, and the fluorescence signal was detected with ENVISION (Perkinelmer) instrument (excitation wavelength: 320 nm, emission wavelength: 665 nm and 615 nm). The inhibition rate in each well was calculated by the fluorescence intensity value of each hole: ER (Emission Ratio)=(Fluorescence intensity at 665 nm/Fluorescence intensity at 615 nm); inhibition rate=(ER positive-ER test compound)/(ER positive-ER negative)×100%, the IC50 value of compounds were calculated by standard parameter fitting software (GraphPad Prism 6.0).", "units": {"IC50": "nM"}, "values": [
      {"smiles": "C[C@@H]1COCCN1c1cc(-c2cccc(S(C)(=O)=O)c2)nc(-c2ccnc3[nH]ccc23)n1", "note": "[Compound A4]", "IC50": 179},
      {"smiles": "C[C@@H]1COCCN1c1cc(-c2ccc(S(C)(=O)=O)cc2)nc(-c2ccnc3[nH]ccc23)n1", "note": "[Compound A5]", "IC50": "> 10000"},
      {"smiles": "Cc1c(-c2cc(N3CCOC[C@H]3C)nc(-c3ccnc4[nH]ccc34)n2)c(C(F)(F)F)nn1C", "note": "[Compound A8]", "IC50": 21},
      {"smiles": "Cc1ccc(S(C)(=O)=O)cc1-c1cc(N2CCOC[C@H]2C)nc(-c2ccnc3[nH]ccc23)n1", "note": "[Compound A9]", "IC50": 31},
      {"smiles": "Cc1ccc(S(=O)(=O)N(C)C)cc1-c1cc(N2CCOC[C@H]2C)nc(-c2ccnc3[nH]ccc23)n1", "note": "[Compound A10]", "IC50": 25},
      {"smiles": "Cc1nn(CCCO)c(C)c1-c1cc(N2CCOC[C@H]2C)nc(-c2ccnc3[nH]ccc23)n1", "note": "[Compound A11]", "IC50": 15},
      {"smiles": "Cc1nn(CC(C)(C)O)c(C)c1-c1cc(N2CCOC[C@H]2C)nc(-c2ccnc3[nH]ccc23)n1", "note": "[Compound A12]", "IC50": 44},
      {"smiles": "COc1ccc(S(=O)(=O)C(C)C)cc1-c1cc(N2CCOC[C@H]2C)nc(-c2ccnc3[nH]ccc23)n1", "note": "[Compound A13]", "IC50": 66},
      {"smiles": "COCCn1nc(C)c(-c2cc(N3CCOC[C@H]3C)nc(-c3ccnc4[nH]ccc34)n2)c1C", "note": "[Compound A14]", "IC50": 571},
      {"smiles": "Cc1nn(C(C)C)c(C)c1-c1cc(N2CCOC[C@H]2C)nc(-c2ccnc3[nH]ccc23)n1", "note": "[Compound A15]", "IC50": 21},
      {"smiles": "Cc1nn(C2CCNCC2)c(C)c1-c1cc(N2CCOC[C@H]2C)nc(-c2ccnc3[nH]ccc23)n1", "note": "[Compound A16]", "IC50": 4},
      {"smiles": "C[C@@H]1COCCN1c1cc(-c2ccnn2C2CCCCC2)nc(-c2ccnc3[nH]ccc23)n1", "note": "[Compound A17]", "IC50": 2270},
      {"smiles": "Cc1nn(CC2CNC2)c(C)c1-c1cc(N2CCOC[C@H]2C)nc(-c2ccnc3[nH]ccc23)n1", "note": "[Compound A18]", "IC50": 47},
      {"smiles": "Cc1nn(CC2COC2)c(C)c1-c1cc(N2CCOC[C@H]2C)nc(-c2ccnc3[nH]ccc23)n1", "note": "[Compound A19]", "IC50": 18},
      {"smiles": "CCN1CCC(n2nc(C)c(-c3cc(N4CCOC[C@H]4C)nc(-c4ccnc5[nH]ccc45)n3)c2C)CC1", "note": "[Compound A20]", "IC50": 98},
      {"smiles": "Cc1nn(CCN(C)C)c(C)c1-c1cc(N2CCOC[C@H]2C)nc(-c2ccnc3[nH]ccc23)n1", "note": "[Compound A21]", "IC50": 56},
      {"smiles": "Cc1nn(CCCN(C)C)c(C)c1-c1cc(N2CCOC[C@H]2C)nc(-c2ccnc3[nH]ccc23)n1", "note": "[Compound A22]", "IC50": 81},
      {"smiles": "Cc1nn(C2CCN(S(C)(=O)=O)C2)c(C)c1-c1cc(N2CCOC[C@H]2C)nc(-c2ccnc3[nH]ccc23)n1", "note": "(some centres unmarked) [Compound A23]", "IC50": 14},
      {"smiles": "Cc1nn(C2CCOCC2)c(C)c1-c1cc(N2CCOC[C@H]2C)nc(-c2ccnc3[nH]ccc23)n1", "note": "[Compound A24]", "IC50": 57},
      {"smiles": "CCNC(=O)Nc1ccc(-c2nc(-c3c(C)nn(C)c3C)cc(N3CCOC[C@H]3C)n2)cc1", "note": "[Compound A26]", "IC50": 2170},
      {"smiles": "Cc1nn(CC2CCOC2)c(C)c1-c1cc(N2CCOC[C@H]2C)nc(-c2ccnc3[nH]ccc23)n1", "note": "(some centres unmarked) [Compound A28]", "IC50": 25},
      {"smiles": "CC(C)S(=O)(=O)c1ccc(C(F)(F)F)c(-c2cc(N3CCOC[C@H]3C)nc(-c3ccnc4[nH]ccc34)n2)c1", "note": "[Compound A29]", "IC50": 631},
      {"smiles": "CCN(C)S(=O)(=O)c1ccc(OC)c(-c2cc(N3CCOC[C@H]3C)nc(-c3ccnc4[nH]ccc34)n2)c1", "note": "[Compound A30]", "IC50": 110},
      {"smiles": "CCN1CCC(n2nc(C)c(-c3cc(N4CCOC[C@H]4C)nc(-c4ccnc5[nH]ccc45)n3)c2C)C1", "note": "(some centres unmarked) [Compound A31]", "IC50": 48},
      {"smiles": "Cc1nn(C2CCCN(C)C2)c(C)c1-c1cc(N2CCOC[C@H]2C)nc(-c2ccnc3[nH]ccc23)n1", "note": "(some centres unmarked) [Compound A32]", "IC50": 27},
      {"smiles": "CCN(C)S(=O)(=O)c1ccc(C(C)C)c(-c2cc(N3CCOC[C@H]3C)nc(-c3ccnc4[nH]ccc34)n2)c1", "note": "[Compound A33]", "IC50": 936},
      {"smiles": "Cc1ccc(S(=O)(=O)N(C)CCN(C)C)cc1-c1cc(N2CCOC[C@H]2C)nc(-c2ccnc3[nH]ccc23)n1", "note": "[Compound A34]", "IC50": 282},
      {"smiles": "CCN1CCN(S(=O)(=O)c2ccc(C)c(-c3cc(N4CCOC[C@H]4C)nc(-c4ccnc5[nH]ccc45)n3)c2)CC1", "note": "[Compound A35]", "IC50": 63},
      {"smiles": "Cc1ccc(S(=O)(=O)C2CCN(C)CC2)cc1-c1cc(N2CCOC[C@H]2C)nc(-c2ccnc3[nH]ccc23)n1", "note": "[Compound A36]", "IC50": 91},
      {"smiles": "Cc1nn(C2CCN(C)CC2)c(C)c1-c1cc(N2CCOC[C@H]2C)nc(-c2ccnc3[nH]ccc23)n1", "note": "[Compound A37]", "IC50": 37},
      {"smiles": "Cc1nn(CC2CCCN(C)C2)c(C)c1-c1cc(N2CCOC[C@H]2C)nc(-c2ccnc3[nH]ccc23)n1", "note": "(some centres unmarked) [Compound A38]", "IC50": 30},
      {"smiles": "Cc1ccc(S(=O)(=O)C(C)C)cc1-c1cc(N2CCOC[C@H]2C)nc(-c2ccnc3[nH]ccc23)n1", "note": "[Compound A39]", "IC50": 121},
      {"smiles": "Cc1ccc(S(=O)(=O)NCCCO)cc1-c1cc(N2CCOC[C@H]2C)nc(-c2ccnc3[nH]ccc23)n1", "note": "[Compound A40]", "IC50": 50},
      {"smiles": "Cc1nn(CS(C)(=O)=O)c(C)c1-c1cc(N2CCOC[C@H]2C)nc(-c2ccnc3[nH]ccc23)n1", "note": "[Compound A41]", "IC50": 11},
      {"smiles": "Cc1nn(C)c(C)c1-c1nc(-c2ccnc3[nH]ccc23)cc(N2CCOC[C@H]2C)n1", "note": "[Compound B1]", "IC50": 255},
      {"smiles": "C[C@@H]1COCCN1c1cc(-c2ccnc3[nH]ccc23)nc(-c2cccc(S(C)(=O)=O)c2)n1", "note": "[Compound B2]", "IC50": 4300},
      {"smiles": "C[C@@H]1COCCN1c1cc(-c2ccnc3[nH]ccc23)nc(-c2ccc(S(C)(=O)=O)cc2)n1", "note": "[Compound B3]", "IC50": "> 10000"},
      {"smiles": "Cc1c(-c2nc(-c3ccnc4[nH]ccc34)cc(N3CCOC[C@H]3C)n2)cnn1C", "note": "[Compound B4]", "IC50": 1720},
      {"smiles": "Cc1nn(C)cc1-c1nc(-c2ccnc3[nH]ccc23)cc(N2CCOC[C@H]2C)n1", "note": "[Compound B5]", "IC50": 1610},
      {"smiles": "Cc1nn(C(C)C)c(C)c1-c1nc(-c2ccnc3[nH]ccc23)cc(N2CCOC[C@H]2C)n1", "note": "[Compound B6]", "IC50": 979},
      {"smiles": "Cc1nn(CC2CNC2)c(C)c1-c1nc(-c2ccnc3[nH]ccc23)cc(N2CCOC[C@H]2C)n1", "note": "[Compound B7]", "IC50": 340},
      {"smiles": "Cc1nn(C)c(C)c1-c1nc(-c2ccnc(C(F)F)c2)cc(N2CCOC[C@H]2C)n1", "note": "[Compound B8]", "IC50": "> 10000"},
      {"smiles": "Cc1nn(C)c(C)c1-c1nc(-c2ccnc3[nH]ccc23)nc(N2CCOC[C@H]2C)n1", "note": "[Compound C1]", "IC50": 41},
      {"smiles": "Cc1c(-c2cc(N3CCOC[C@H]3C)nc(-c3ccc(C#N)c4[nH]ccc34)n2)c(C(F)(F)F)nn1C1CCNCC1", "note": "[Compound D5]", "IC50": 108},
      {"smiles": "CSc1nc2cc(F)ccc2n1-c1nc(-c2c(C)nn(C3CCNCC3)c2C(F)(F)F)cc(N2CCOC[C@H]2C)n1", "note": "[Compound D31]", "IC50": 2700},
      {"smiles": "Cc1nn(C2CCNCC2)c(C(F)(F)F)c1-c1cc(N2CCOC[C@H]2C)nc(-n2c(CO)nc3cc(F)ccc32)n1", "note": "[Compound D32]", "IC50": 1770},
      {"smiles": "CNc1nc2ccc(F)cc2n1-c1nc(-c2c(C(F)(F)F)nn(C3CCCNC3)c2C)cc(N2CCOC[C@@H]2C)n1", "note": "(some centres unmarked) [Compound D34]", "IC50": 73},
      {"smiles": "CCNC(=O)Nc1nc2ccccc2n1-c1nc(-c2c(C)nn(C3CCNCC3)c2C(F)(F)F)cc(N2CCOC[C@@H]2C)n1", "note": "[Compound D37]", "IC50": 71},
      {"smiles": "Cc1c(-c2cc(N3CCOC[C@H]3C)nc(-c3cc(F)cc4[nH]ccc34)n2)c(C(F)(F)F)nn1C1CC2(CNC2)C1", "note": "[Compound D50]", "IC50": 3}
    ]},
    {"test_system": "MV4-11 (leukemia) cells", "assay": "In vitro cell proliferation inhibition assay (CellTiter-Glo), MV4-11", "assay_type": "cell-based, human", "conditions": "MV4-11 cells, 120 hours", "protocol": "By detecting the effect of compound on cell activity in vitro in the tumor cell lines TOV21G (ovarian cancer) and MV4-11 (leukemia), the effect of compound inhibiting cell proliferation was studied in this assay.\nTOV21G cells and MV4-11 cells were purchased from American Type Culture Collection (ATCC).\nMV-4-11 cells were cultured in IMDM medium (containing 20% FBS), each well of a 96-well culture plate was inoculated with about 10000 cells, and treated with different concentrations (0-10 μM) of compounds to be tested in triplex. Blank wells (containing medium only) and control wells (inoculated with cells but not treated with drug) were set. Cells were cultured for 120 hours, 40 μL Cell Titer-Glo solution was added to each well, incubated with shaking for 20 min in the dark, 100 μL solution was transferred from each well to a 96-well white plate, and the luminescence value was read by Biotek Synergy H1 multifunctional microplate reader. Inhibition rate (%)=100%×(control well−test well)/(control well−blank well)", "units": {"IC50": "nM"}, "values": [
      {"smiles": "Cc1c(-c2cc(N3CCOC[C@H]3C)nc(-c3cc(F)cc4[nH]ccc34)n2)c(C(F)(F)F)nn1C1CC2(CNC2)C1", "note": "[Compound D50]", "IC50": 810}
    ]}
  ]
}
